Data reported in US5482975A, “Adenosine diphosphoribose polymerase binding nitroso aromatic compounds useful as retroviral inactivating agents, anti-retroviral agents and anti-tumor agents” (priority 1993, dated 1996).
Entries after “also recorded” stand apart in the source; their conditions may differ.

Tests used:
Zn(HIV1-F1) = Zn(HIV1-F1) (Human immunodeficiency virus type 1 lw12.3 isolate, UniProt Q70622); test: NMR study of Zn ejection from HIV-1 NC zinc finger peptide; format: biochemical; set-up: parent Gag (Gag-Pol) polyprotein
Procedure: The * and + symbols denote the aromatic proton signals of the zinc-coordinated and zinc-free His 9 residue. Upon completion of the reaction, reflected by complete ejection of zinc (t=90 min), 50% of the NOBA remained unreacted indicating a 1:1 reaction stoichiometry. NOBA (3-nitrosobenzamide), was synthesized described elsewhere in this application.
To determine if NOBA is capable of ejecting zinc from retroviral-type zinc fingers, NMR studies were performed on a peptide with amino acid sequence corresponding to the N-terminal CCHC zinc finger of the HIV-1 NC protein, Zn(HIV1-F1), South, et al., J. Am. Chem. Soc. 111:395-396 (1989), South, et al., Biochem Pharm. 40:123-129 (1990 ), Summers, et al., Biochemistry 29:329-340 (1990). NMR spectra of Zn(HIV-F1) were performed before and after the addition of NOBA (3-nitrosobenzamide). […] Chem Soc. 111:395-396 (1989), and three-dimensional structural studies have shown that the peptide adopts a structure that is essentially identical to the structure of the corresponding region in the intact NC protein, South, et al., Biochemistry 29:7786-7789 (1990). The down-field region of the ^1 H NMR spectrum showing the signals due to the aromatic proton of His 9 and Phe 2 is illustrated in FIG. 10 (bottom). Addition of two molar equivalents of NOBA results in the loss of the signals due to zinc-bound histidine (denoted by *) and the appearance of broad signals representative of zinc-free histidine (denoted by +). Other signals in the spectrum are due to NOBA protons. […] By comparison, a 10-fold molar excess of EDTA is required to remove zinc from Zn(HIV-1-F1), Summers, et al., J. Cell Biochem 45:41-48 (1991).

HIV-1 = test: inhibition of HIV infection, virus titer in stimulated human lymphoblasts; format: cell-based; conditions: 10 μM; 30 min exposure, day 10; virus alone 5.25
Procedure: VIII. Anti-HIV action of NOBP, NOBA and NOQ on stimulated human lymphoblasts.
Exposure to the two drugs was only for 30 minutes at the commencement of viral infection, and drugs were never re-added. The results given in Table III provide the ID50 of HIV titer 10 days after infection of cell cultures with HIV.

855-2 cells [1] = test: cytocidal activity, MTT assay; format: cell-based, human; conditions: 10 μM; 100,000 cells/ml
Procedure: MTT (3-[4,5-[…]]-2,5-diphenyltetrazolium bromide) at 1 mg/ml was then added for 16 hours. The absorbance of the pelleted cell was then measured at 550 nm after adding DMSO to solubilze the cells.

[2] = system: normal cells (neutrophil leukocytes and bone marrow or peripheral blood cells); test: viability / functions of normal cells in presence of compounds
Procedure: (§1) Experiments were performed in which the functions of various cancer cells (855-2 and HL-60 leukemia cells, D32, D37 and CRL 7712 glioblastoma cell lines, 186 medulla tumor cell line, L1210 murine leukemia cell line, MDA-468 human breast tumor cell line) and normal cells (neutrophil leukocytes and bone marrow or peripheral blood stream cells) were assessed in the absence or presence of the compounds.

[3] = system: various cancer cells (855-2, HL-60, D32, D37, CRL 7712, 186 medulla, L1210, MDA-468); test: functions of various cancer cells in presence of compounds (FIGS. 4-9); format: cell-based; conditions: summary statement
Procedure: as §1

[4] = system: human leukemia cell lines (855-2, H9, HL-60, K562); test: [3H] thymidine uptake, human leukemia cell lines together; format: cell-based; conditions: 10 μM; each of the cell lines tested
[5] = system: HIV-1 (MN strain) virions; test: zinc loss from HIV-1 virions; format: biochemical
Procedure: Experiments were performed to determine if NOBA is capable of ejecting zinc from intact virions. HIV-1(MN strain) was produced, purified and concentrated as described in Bess et al., J. Virol. 66:840-847 (1992). The concentrated virus was diluted to 60 times that of culture fluid in TNE buffer (0.01 M Tris-HCl, 0.1M NaCl, 1 mM EDTA, pH 7.2) and incubated with 3000 or 6000 μM NOBA at 37° C. The virus was then pelleted and washed with TNE buffer to remove weakly bound zinc. The quantity of zinc in the resulting viral pellets was determined as described in Bess et al., J. Virol. 66:840-847 (1992).

HL-60 cells = test: colony formation (CFU) of leukemic cells in semi-solid medium (FIG. 4); format: cell-based, human
Procedure: as §1

Human Neutrophils = test: superoxide generation by human neutrophils; conditions: 10 μM
855-2 cells [6] = test: colony formation (CFU) of leukemic cells in semi-solid medium (FIG. 4); format: cell-based, human
Procedure: as §1

H9 cells = test: [3H] thymidine uptake, H9 cells (FIG. 2B); format: cell-based, human; conditions: 250 μM; 10% FCS
[7] = system: normal rhesus bone marrow stem cells; test: CFU stem cell toxicity assay (FIG. 5A); conditions: 10 μM
[8] = target: T1, Zn(HIV1-F1) oligonucleotide complex (Human immunodeficiency virus type 1 lw12.3 isolate, UniProt Q70622); test: NMR study of Zn(HIV1-F1) nucleic acid binding; format: biochemical, HIV-1; conditions: two equivalents NOBA
T1 construct: NC cut from Gag polyprotein (Pr55Gag)
From the text: The downfield regions of the spectra show the signals of the aromatic and ribose H1' protons, and the upfield region contain signals of the methyl group protons. Dramatic spectral changes occur upon addition of oligonucleotide to Zn(HIV1-F1), including large upfield shifts of the Phe 2 and Ile 10 side chain=n signals and a downfield shifting and broadening of the guanosine-H8 proton signal (second from the top).
The reaction mechanism, schematically illustrated in FIG. 12, is consistent with the result of NMR analysis in FIGS. 10 and 11. The reaction mechanism proposed in FIG. 12 is a useful model but is not intended to limit the scope of the claimed invention.

Compound: NC(=O)c1cccc(N=O)c1 [NOBA, 3-nitrosobenzamide]
- time to complete ejection of zinc (Zn(HIV1-F1); 2 mM NOBA, 1 mM Zn(HIV1-F1), D2O, pH*=6.2, 30° C.): 90 min
- NOBA remaining unreacted on completion (Zn(HIV1-F1); 2 mM NOBA, t=90 min): 50%
- stoichiometry of reaction (Zn(HIV1-F1); after 90 minutes): reacts stoichiometrically with Zn(HIV1-F1)
- zinc-bound His signals (Zn(HIV1-F1); two molar equivalents, after 90 min.): no signals attributable to the zinc-bound His could be detected
- Virus Titer (log ID50) (HIV-1): 1.05 log ID50
- cell killing (855-2 cells [1]): complete killing
- effect on colony formation by normal cells ([2]; anti-leukemic doses, rhesus bone marrow and human peripheral blood stem cells, FIG. 5): minimal effect on normal cells
- effect on viability of normal cells ([2]; tumor cell inhibitory concentrations): not to affect adversely the viability of normal cells
- effectiveness against tumor cells [3]: highly effective
- inhibition of 3H-thymidine uptake [4]: powerfully inhibited
- loss of viral proteins in the pellet ([5]; 3000 or 6000 μM, 37° C., p24, gp120 RIA, SDS-PAGE): No significant loss of viral proteins
- loss of infectivity ([5]; concentrated HIV-1 (60x)): complete loss of infectivity
- losses of viral zinc ([5]; concentrated HIV-1 (60x)): 50-83%
- ability to form colonies (CFU) (HL-60 cells): inhibit the ability
- reduction in superoxide generation (Human Neutrophils): Only minor reductions
- Generation of Superoxide by Human Neutrophils (Human Neutrophils; mean + S.D., n = 11, PMN + PMA): 44.4 ± 10.0 nmol 02^- /hr/10^5 cells
- ability to form colonies (CFU) (855-2 cells [6]): inhibit the ability
- inhibition of thymidine uptake (H9 cells): almost complete inhibition
- CFU stem cell toxicity [7]: non-toxic
- effect on zinc finger nucleic acid complex [8]: ejection of zinc with concomitant dissociation of the zinc finger nucleic acid complex; also recorded: NOBA-induced zinc ejection leads to loss of high-affinity nucleic acid binding function
